≈ marks a conversion by molar mass, not a printed value.

For one assay, the system named is Mycobacterium tuberculosis. Briefly: Antimycobacterial activity against multidrug-resistant Mycobacterium tuberculosis. Format: functional.
On to `CC(C)C1=C(O)C(=O)C2=C(C=C[C@H]3C(C)(C)CCC[C@]23C)C1=O`, for which 12.5 µg/mL (≈ 39.8 µM) was the least that counted as inhibitory (MIC).

The compound `C=C(C)C(CC[C@@H](C)[C@H]1CC[C@@]2(C)[C@@H]3CC[C@H]4C(C)(C)[C@@H](O)CC[C@@]45C[C@@]35CC[C@]12C)OO` (stereo not given in full) had a minimum inhibitory concentration (MIC) of 25 µg/mL (≈ 54.5 µM).

Compound `C[C@H](C/C=C/C(C)(C)OO)[C@H]1CC[C@@]2(C)[C@@H]3CC[C@H]4C(C)(C)[C@@H](O)CC[C@@]45C[C@@]35CC[C@]12C` gave an MIC of 12.5 µg/mL (≈ 27.2 µM).

In the case of `CC(C)C1=C(O)C(=O)C2=C(C1=O)[C@H](O)C[C@H]1C(C)(C)CCC[C@]21C` [HORMINONE], 12.5 µg/mL (≈ 37.6 µM) was the least that counted as inhibitory (MIC).

On to `CC(=O)O[C@H]1C2=C(C(=O)C(OC(=O)c3ccc(Cl)cc3)=C(C(C)C)C2=O)[C@@]2(C)CCCC(C)(C)[C@@H]2[C@@H]1O`, for which the lowest concentration to inhibit growth (MIC) was 0.78 µg/mL (≈ 1.47 µM).

In the case of `COc1ccc(C(=O)OC2=C(C(C)C)C(=O)C3=C(C2=O)[C@@]2(C)CCCC(C)(C)[C@@H]2[C@H](O)[C@H]3OC(C)=O)cc1`, 0.39 µg/mL (≈ 0.743 µM) was the least that counted as inhibitory (MIC).

`CC(=O)O[C@H]1C2=C(C(=O)C(O)=C(C(C)C)C2=O)[C@@]2(C)CCCC(C)(C)[C@@H]2[C@@H]1O` registered an MIC of 3.12 µg/mL (≈ 7.99 µM).

In turn, `CC(C)C1=C(O)C(=O)C2=C(C1=O)[C@H](O)[C@@H](O)[C@H]1C(C)(C)CCC[C@]21C` had an MIC of 12.5 µg/mL (≈ 35.9 µM).

The next assay has as its system Mycobacterium tuberculosis. Briefly: Antimycobacterial activity against rifampicin-resistant Mycobacterium tuberculosis. Format: functional.
In turn, `C/C=C(/NC(=O)c1csc(-c2csc(-c3ccc4c(n3)-c3csc(n3)C(C(C)(O)C(C)O)NC(=O)c3csc(n3)C(C(C)C)NC(=O)c3csc(n3)/C(=C/OC)NC(=O)C(C(C)O)NC(=O)c3csc-4n3)n2)n1)C(=O)OC` (stereo not given) [NOCARDITHIOCIN] gave a minimal inhibitory concentration (MIC) of 0.025 µg/mL (≈ 0.0215 µM).

Tested on in a further assay: not listed separately
Description: Selectivity index, ratio of IC50 for african green monkey Vero cells to MIC for multidrug-resistant Mycobacterium tuberculosis. Format: functional.
Turning to `COc1ccc(C(=O)OC2=C(C(C)C)C(=O)C3=C(C2=O)[C@@]2(C)CCCC(C)(C)[C@@H]2[C@H](O)[C@H]3OC(C)=O)cc1`, the “Selectivity Index” value turned out to be 6.6.
